In US6861439B2, “Treatment of cerebrovascular disease” (Medicure International, Inc., priority 2000, dated 2005):

Key:
[1] = test system: rat model of cerebral ischemia; assay: Rat model of cerebral ischemia: neurological deficit evaluation (neurobehavioral scores); assay type: in vivo, Male Wistar rats; conditions: scale 0-4, evaluation at 2 and 24 hours after thrombus
Procedure: (§1) Male Wistar rats (250-300 g) were housed in the animal facility for a period of 12 days and given food and water ab libitum. Animals were randomly assigned to groups (n=8/group) of a) control group b) post-ischemia PLP treatment 10 mg/kg c) post-ischemia PLP treatment […] and d) post-ischemia PLP treatment 40 mg/kg.
(§2) The rats of each group were anaesthetized to surgical depth initially with 3% halothane, and maintained with 1.5% halothane in a 70% N2O/30% O2 (vol./vol.) mixture. Animal core temperature was maintained at approx 37° C. using a heating pad and an overhead lamp. Temperature was measured with a rectal thermometer.
(§3) A midline longitudinal incision of approx 2.0 cm was made in the cervical area. Both common carotid arteries (CCA) were dissected from the surrounding tissue and both the right internal carotid artery (ICA) and the right external carotid artery (ECA) were exposed to a maximal length. Branches of the right ECA will be occluded with electro-coagulation and the distal portion ligated. The right CCA and ICA were occluded by temporary clamping, after which the distal end of the ECA was cut to allow catheter insertion. A loose 5.0 silk suture was tied around the proximal right ECA. A PE-50 catheter [Becton-Dickinson, N.J., USA] (0.3 mm O.D at the tip of the catheter and O.D. 0.97 in the catheter body) was attached to a […] filled with 0.5 ml bovine alpha-thrombin (Thrombostat, Parke-Davis).
(§4) The catheter was introduced into the ICA from the ECA and CCA via a small puncture and the silk suture tied around the ECA to prevent bleeding and dislodgement. This was followed by the removal of vascular clips from the ICA and CCA. 10 ul of blood was withdrawn into the catheter and kept in place for 15 minutes for formation of a thrombin clot. Subsequently 17 mm of the catheter (calculated from the puncture site) was gently advanced through the ECA and extra-cranial portion of the ICA to approximately 2 mm from the origin of the middle cerebral artery. After temporary occlusion of the CCAs bilaterally to slow blood flow, the clot was introduced into the ICA. The clip of the contralateral CCA was removed five minutes later and the catheter was removed 10 minutes after the clot introduction. The ipsilateral ICA was then ligated prior to the removal of the clip on the right CCA, 15 minutes after clot injection. The incision was then sutured and the animals allowed to recover from anesthesia whereupon they were given free access to food & water.
Neurological deficit evaluation was conducted at 2 and 24 hours after injection of thrombus. The neurological findings were scored on a four-point grade scale: no observable deficit—0; forelimb flexion—1; forelimb flexion and decreased resistance to lateral push—2; forelimb flexion, decreased lateral push resistance and unilateral circling in three successive trials—3. A score of 4 was given to animals with a score of 3 plus decreased consciousness.
(§5) Control animals were given 3 mL saline (iv) at 2 hours following cerebral ischemia. The pre-ischemia treatment group was given PLP (10 mg/kg, iv in 3 mL) over 30 minutes 1 hour prior to ischemic insult. The post-ischemia groups received PLP at […] iv at 2 hours following cerebral ischemia.
All data was expressed as mean±SD. Two-tailed paired Students t-tests were used to compare differences between values obtained before and after treatment. Statistical analysis of more than two groups of animals were performed with ANOVA, with subsequent individual comparisons by Scheffe's test. Differences were considered significant at […].

[2] = in water, alcohol, and ether; cited from earlier work
[3] = test system: rat model of cerebral ischemia; assay: Rat model of cerebral ischemia: measurement of infarct damage (TTC staining); assay type: in vivo, Male Wistar rats; conditions: for Infarct Volume (mean): post-ischemia PLP iv, 24 hours after ischemia, control group 37.74%
Procedure: as §1, §2, §3, §4
The infarcted brain tissue in the right MCA territory was differentiated using the 2,3,5-triphenyltetrazolium chloride (TTC) staining method. The rats were perfused transcardially with 120 ml 0.9% normal saline under deep anaesthesia, 24 hours after ischemia. The brain was then removed and cooled in ice-cold saline for 5 minutes after which it was dissected in the coronal plane at 2 mm intervals using a rat brain matrix and stored in 10% buffered formalin for fixing. The stained sections were colour scanned within seven days. The 2 mm thick coronal sections were placed directly on the scanning screen and scanned from rostral to caudal ends, with attention paid to soaking up formalin to prevent shadows, and the use of a black background.
Image contrast and brightness was adjusted with Photoshop 4.0; measurements were made by manually outlining the margins of infarct areas in each section. The total volume of infarction was determined by integrating the […] of the eight chosen sections. Values were corrected for any brain edema.
as §5
All data was expressed as mean±SD. […]

[4] = test system: rat model of cerebral ischemia; assay: Rat model of cerebral ischemia: seizures, hemorrhage and mortality; conditions: for mortality (number of animals): n=8/group, 2 in control group

For `Cc1ncc(COP(=O)(O)O)c(C=O)c1O` [PLP, 3-hydroxy-2-methyl-5-[(phosphonooxy)methyl]-4-pyridine-carboxaldehyde], the “Neurobehavioral score, final (decreased to)” value ([1]; 10 mg/kg group) was 3, the “Neurobehavioral score, initial (decreased from)” value ([1]; 10 mg/kg group) was 3.6 and the “Neurobehavioral score, final (decreased to)” value ([1]; 20 mg/kg group) was 3. The “Neurobehavioral score, initial (decreased from)” value ([1]; 20 mg/kg group) was 3.8, the “Neurobehavioral score, final (decreased to)” value ([1]; 40 mg/kg group, p<0.001) was 1.9 and the “Neurobehavioral score, initial (decreased from)” value ([1]; 40 mg/kg group, p<0.001) was 3.8. For the same molecule, the solubility [2] was “essentially insoluble”, the “Infarct Volume (mean)” value ([3]; 10 mg/kg treatment group) was 28.25%, and the “Infarct Volume (mean)” value ([3]; 20 mg/kg treatment group) was 27.4%,. The “infarct reduction, statistical significance” value ([3]; 40 mg/kg dose) was “statistically significant”, the “Infarct Volume (mean)” value ([3]; 40 mg/kg treatment group) was 19.3%, and the “therapeutic effect on infarct size and neurobehavioral activity” value ([3]; 10, 20, 40 mg/kg) was “dose-dependant therapeutic effect”. The “anti-ischemic effect in the rat model of ischemia and reperfusion injury” value ([3]; overall conclusion) was “demonstrates anti-ischemic effects and benefits against ischemia reperfusion injury”, the “mortality (number of animals)” value ([4]; 10 mg/kg group) was 3 and the “mortality (number of animals)” value ([4]; 20 mg/kg group) was 1. The “mortality (number of animals)” value ([4]; 40 mg/kg group) was 0, the number of seizures ([4]; the three groups (10, 20, 40 mg/kg)) was “no difference” and the risk of hemorrhage ([4]; with higher doses) was “did not increase”.
